According to patent US8222244B2, “Staurosporine derivatives as inhibitors of FLT3 receptor tyrosine kinase activity” (Novartis AG, priority 2001, dated 2012):

What follows are compounds tested against T1, human Flt-3 (Homo sapiens, UniProt P36888) (assay: Tyrosine protein kinase assay with purified GST-Flt-3 (33P incorporation)). Settings: at a 1.0 micromolar concentration.
T1 construct: expresses the amino acid region amino acids 563-993 of the intra-cytoplasmic kinase domains of human Flt-3; made in house; host or cells: Sf9 insect cells (baculovirus, pFbacG01 donor vector)
T1 sequence (P36888 563-993): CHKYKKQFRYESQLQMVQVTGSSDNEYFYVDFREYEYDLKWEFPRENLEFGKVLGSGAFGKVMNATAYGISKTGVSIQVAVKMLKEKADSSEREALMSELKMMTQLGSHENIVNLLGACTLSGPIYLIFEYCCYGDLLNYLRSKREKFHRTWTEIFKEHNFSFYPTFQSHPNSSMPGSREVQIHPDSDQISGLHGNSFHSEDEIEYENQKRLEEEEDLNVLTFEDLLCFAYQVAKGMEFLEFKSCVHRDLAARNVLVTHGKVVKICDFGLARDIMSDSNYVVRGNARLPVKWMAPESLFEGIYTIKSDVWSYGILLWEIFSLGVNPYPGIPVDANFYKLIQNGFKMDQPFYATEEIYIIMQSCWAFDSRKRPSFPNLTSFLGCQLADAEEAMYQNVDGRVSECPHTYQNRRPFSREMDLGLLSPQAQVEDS
Format: biochemical
Procedure: ATP into appropriate substrates.
The coding sequences for the cytoplasmic domain of Flt-3 was amplified by PCR from human c-DNA libraries (Clontech). The amplified DNA fragments and the pFbacG01 vector were made compatible for ligation by digestion with BamH1 and Hind III. […] The production of the viruses, the expression of proteins in Sf9 cells and the purification of the GST-fused proteins were performed as following:
(Generation of Bac- to Bac GST-fusion vectors); pFbacG01, pFbacGST2T and pFbacGSTx3 Bac-to-Bac™ donor vectors were generated from pAcG1, pAcG2T and pAcG3X respectively, which facilitate the expression of GST-fusion proteins with the possibility of cleavage with thrombin (pFbacGT2) or factor Xa (pFbacGSTx3) while pFbacG01 expresses no proteolytic cleavage site. These were generated in house by isolation of the DNA fragment containing the gene for GST with the C-terminal protease and restriction sites by restriction enzyme digestion of the relevant PharMingen baculovirus donor vector with EcoRV and EcoRI. This EcoRV/EcoRI fragment was ligated into the pFastBac1 vector which had been restriction digested with BamHI, blunt-ended by Klenow reaction and subsequently digested with EcoRI to generate a blunt-ended/EcoRI vector. (Production of virus); Transfer vectors containing the kinase domains were transfected into the DH10Bac cell line (GIBCO) and plated on selective agar plates. Colonies without insertion of the fusion sequence into the viral genome (carried by the bacteria) are blue. Single white colonies were picked and viral DNA (bacmid) isolated from the bacteria by standard plasmid purification procedures. Sf9 cells or Sf21 cells were then transfected in 25 cm^2 flasks with the viral DNA using Cellfectin reagent. (Determination of small scale protein expression in Sf9 cells); Virus containing media was collected from the transfected cell culture and used for infection to increase its titer. Virus containing media obtained after two rounds of infection was used for large-scale protein expression. For large-scale protein expression 100 cm^2 round tissue culture plates were seeded with 5×10^7 cells/plate and infected with 1 mL of virus-containing media (approx. 5 MOIs). After 3 days the cells were scraped off the plate and centrifuged at 500 rpm for 5 min. Cell pellets from 10-20, 100 cm^2 plates, were resuspended in 50 mL of ice-cold lysis buffer (25 mMTris-HCl, pH7.5, 2 mMEDTA, 1% NP-40, 1 mM DTT, 1 mMP MSF). The cells were stirred on ice for 15 min and then centrifuged at 5000 rpms for 20 min.
ATP 0.1 μCi). […] ATP into appropriate substrates. […] Subsequently, 40 μL of the reaction mixture were transferred onto Immobilon-PVDF membrane (Millipore, Bedford, Mass., USA) previously soaked for 5 min with methanol, rinsed with water, then soaked for 5 min with 0.5% H3PO4 and mounted on vacuum manifold with disconnected vacuum source. After spotting all samples, vacuum was connected and each well rinsed with 200 μL 0.5% H3PO4. Membranes were removed and washed 4× on a shaker with 1.0% H3PO4, once with ethanol. Membranes were counted after drying at ambient temperature, mounting in Packard TopCount 96-well frame, and addition of 10 μL/well of Microscint™ (Packard). […] One unit of protein kinase activity is defined as 1 nmole of ^33P ATP transferred from [γ^33P] ATP to the substrate protein per minute per mg of protein at 37° C.

Row | Compound | Flt3 Inhibition (percent inhibition of Flt3 kinase activity)
1 | CC[N+](C)(C)C1CC2OC(C)(C1OC)n1c3ccccc3c3c4c(c5c6ccccc6n2c5c31)C(=O)NC4.[I-] (stereo not drawn) [120685-28-1, N-Ethyl-[9S-(9a,10b,11b,13a)]-2,3,10,11,12,13-hexahydro-10-methoxy-N,N,9-trimethyl-1-oxo-9,13-epoxy-1H,9H-diindolo[1,2,3-gh:3′,2′,1′-lm]pyrrolo[3,4-j][1,7]benzodiazonin-11-aminium iodide] | 100%
2 | COC1C(=O)CC2OC1(C)n1c3ccccc3c3c4c(c5c6ccccc6n2c5c31)C(=O)NC4 [178276-05-6, (9S,10S,13R)-2,3,9,10,12,13-Hexahydro-10-methoxy-9-methyl-9,13-epoxy-1H,11H-diindolo[1,2,3-gh:3′,2′,1′-lm]pyrrolo[3,4-j][1,7]benzodiazonine-1,11-dione] | 88%
3 | (9a,10b,11b,13a)-11-[[N-Acetyl-4,6-O-(1-methylethylidene)-1-O-(phenylmethyl)-a-isomuramoyl]methylamino]-2,3,10,11,12,13-hexahydro-9-methyl-10-methoxy-9,13-epoxy-1H,9H-diindolo[1,2,3-gh:3′,2′,1′-lm]pyrrolo[3,4-j][1,7]benzodiazonin-1-one [149622-59-3] | 77%
4 | COC1C(N(C)C(=O)CN)CC2OC1(C)n1c3ccccc3c3c4c(c5c6ccccc6n2c5c31)C(=O)NC4.Cl (stereo not drawn) [124151-42-4, [9S-(9a,10b,11b,13a)]-2-Amino-N-(2,3,10,11,12,13-hexahydro-10-methoxy-9-methyl-1-oxo-9,13-epoxy-1H,9H-diindolo[1,2,3-gh:3′,2′,1′-lm]pyrrolo[3,4-j][1,7]benzodiazonin-11-yl)-N-methyl-acetamide, monohydrochloride] | 97%
5 | (9a,10b,11b,13a)-11-[[N-Acetyl-6-azido-6-deoxy-1-O-(phenylmethyl)-a-muramoyl]methylamino]-2,3,10,11,12,13-hexahydro-10-methoxy-9-methyl-,9,13-epoxy-1H,9H-diindolo[1,2,3-gh:3′,2′,1′-lm]pyrrolo[3,4-j][1,7]benzodiazonin-1-one [149622-42-4] | 61%
6 | (9a,10b,11b,13a)-11-[[N-Acetyl-4,6-di-O-acetyl-1-O-(phenylmethyl)-a-muramoyl]methylamino]-2,3,10,11,12,13-hexahydro-10-methoxy-9-methyl-9,13-epoxy-1H,9H-diindolo[1,2,3-gh:3′,2′,1′-lm]pyrrolo[3,4-j][1,7]benzodiazonin-1-one [149622-61-7] | 70%
7 | 11-[[N-Acetyl-1-O-methyl-4,6-O-(phenylmethylene)-a-normuramoyl]methylamino]-2,3,10,11,12,13-hexahydro-10-methoxy-9-methyl-9,13-epoxy-1H,9H-diindolo[1,2,3-gh:3′,2′,1′-lm]pyrrolo[3,4-j][1,7]benzodiazonin-1-one [149622-43-5] | 66%
8 | CO[C@@H]1[C@H](N(C)C(=O)c2ccccc2)C[C@H]2O[C@]1(C)n1c3ccccc3c3c4c(c5c6ccccc6n2c5c31)C(=O)NC4=O [154589-96-5, [9S-(9a,10b,11b,13a)]-N-(2,3,10,11,12,13-Hexahydro-10-methoxy-9-methyl-1,3-dioxo-9,13-epoxy-1H,9H-diindolo[1,2,3-gh:3′,2′,1′-lm]pyrrolo[3,4-j][1,7]benzodiazonin-11-yl)-N-methyl-benzamide] | 63%
9 | (9a,10b,11b,13a)-11-[[N-Acetyl-6-amino-6-deoxy-1-O-(phenylmethyl)-a-muramoyl]methylamino]-2,3,10,11,12,13-hexahydro-10-methoxy-9-methyl-9,13-epoxy-1H,9H-diindolo[1,2,3-gh:3′,2′,1′-lm]pyrrolo[3,4-j][1,7]benzodiazonin-1-one, monomethanesulfonate [150622-14-3] | 99%
10 | COC1C(N(C)C(=O)c2ccc(C(=O)[O-])cc2)CC2OC1(C)n1c3ccccc3c3c4c(c5c6ccccc6n2c5c31)C(=O)NC4.[Na+] (stereo not drawn) [120751-44-2, [9S-(9a,10b,11b,13a)]-4-[[(2,3,10,11,12,13-Hexahydro-10-methoxy-9-methyl-1-oxo-9,13-epoxy-1H,9H-diindolo[1,2,3-gh:3′,2′,1′-lm]pyrrolo[3,4-j][1,7]benzodiazonin-11-yl)methylamino]carbonyl]-benzoic acid, monosodium salt] | 90%
11 | [9S-(9a,10b,11b,13a)]-(2,3,10,11,12,13-Hexahydro-10-methoxy-9-methyl-1,3-dioxo-9,13-epoxy-1H,9H-diindolo[1,2,3-gh:3′,2′,1′-lm]pyrrolo[3,4-j][1,7]benzodiazonin-11-yl)methyl-carbamic acid, 1,1-dimethylethyl ester [154589-93-2] | 67%
12 | COC1C(N(C)C(=O)c2ccc(F)cc2)CC2OC1(C)n1c3ccccc3c3c4c(c5c6ccccc6n2c5c31)C(=O)NC4 (stereo not shown) [120685-44-1, (9a,10b,11b,13a)-4-Fluoro-N-(2,3,10,11,12,13-hexahydro-10-methoxy-9-methyl-1-oxo-9,13-epoxy-1H,9H-diindolo[1,2,3-gh:3′,2′,1′-lm]pyrrolo[3,4-j][1,7]benzodiazonin-11-yl)-N-methyl-benzamide] | 55%
13 | (9a,10b,11b,13a)-11-[(N-Acetyl-6-amino-6-deoxy-a-isomuramoyl)methylamino]-2,3,10,11,12,13-hexahydro-10-methoxy-9-methyl-9,13-epoxy-1H,9H-diindolo[1,2,3-gh:3′,2′,1′-lm]pyrrolo[3,4-j][1,7]benzodiazonin-1-one [149622-56-0] | 100%
14 | COC1C(N(C)CC(=O)O)CC2OC1(C)n1c3ccccc3c3c4c(c5c6ccccc6n2c5c31)C(=O)NC4 (stereo not drawn) [120685-22-5, [9S-(9a,10b,11b,13a)]-N-(2,3,10,11,12,13-Hexahydro-10-methoxy-9-methyl-1-oxo-9,13-epoxy-1H,9H-diindolo[1,2,3-gh:3′,2′,1′-lm]pyrrolo[3,4-j][1,7]benzodiazonin-11-yl)-N-methyl-glycine] | 98%
15 | CO[C@@H]1[C@H](N(C)C(=O)c2ccccc2)C[C@H]2O[C@]1(C)n1c3ccccc3c3c4c(c5c6ccccc6n2c5c31)C(=O)NC4O (stereo partly shown) [179237-49-1, N-(2,3,10,11,12,13-Hexahydro-3-hydroxy-10-methoxy-9-methyl-1-oxo-9,13-epoxy-1H,9H-diindolo[1,2,3-gh:3′,2′,1′-lm]pyrrolo[3,4-j][1,7]benzodiazonin-11-yl)-N-methyl-benzamide] | 41%
16 | (9a,10b,11b,13a)-11-[(N-Acetyl-6-amino-1,6-dideoxymuramoyl)methylamino]-2,3,10,11,12,13-hexahydro-10-methoxy-9-methyl-9,13-epoxy-1H,9H-diindolo[1,2,3-gh:3′,2′,1′-lm]pyrrolo[3,4-j][1,7]benzodiazonin-1-one, monomethanesulfonate [150654-80-1] | 97%
